As a reminder, the inhibition in vivo is the share of the control response that was lost under treatment. The IC50 is the point on the concentration scale where inhibition reaches its midpoint. A low value points to higher potency.

SMILES strings stand for the structures.

The results in this text go back to US4916145A, “Substituted n-[(pyridyl)alkyl]aryl-carboxamide” (Hoffmann-La Roche Inc., priority 1987, dated 1990).

Assay [1] relates to PAF-Induced Bronchoconstriction. Nature of the assay: PAF-Induced Bronchoconstriction Assay. Type of assay: in vivo, guinea pig. Particulars: for inhibition in vivo at 1 mg/kg / inhibition in vivo at 50 mg/kg: Cavia porcellus; for inhibition in vivo at 1 mg/kg: 1 min; for inhibition in vivo at 50 mg/kg: po, 2 hours pretreatment. The protocol:
The in vivo ability of compounds to inhibit PAF-induced bronchoconstriction in guinea pigs was assessed by the intravenous and oral routes of administration. The intravenous technique utilized male guinea pigs (Hartley strain, Charles River) weighing 400-600 g. Animals were anesthetized with urethane (2 g/kg) intraperitoneally and a polyethylene cannula was inserted into the jugular vein for intravenous drug administration. Tracheal pressure ([…]) was recorded from a Statham pressure transducer (P 32 AA). Propranolol was administered 5 minutes prior to challenge with PAF. Two minutes later spontaneous breathing was arrested with succinylcholine chloride (1.2 mg/kg) administered intravenously, and the animals were ventilated with a Harvard (Model 680) small animal respirator set at 40 breaths/min and 4.0 cc stroke volume. Control vehicle or test drug was administered through the cannula into the jugular vein 1 minute before the animals were challenged with a maximum constrictory dose of PAF (1.0 μg/kg) given intravenously. The change in tracheal pressure was averaged for four control and four drug-treated animals and percent inhibition was calculated.
For determination of oral activity, animals were dosed with test compound or vehicle two hours prior to challenge with PAF (1.0 μg/kg, i.v.).
The change in tracheal pressure is determined by subtracting the steady state baseline achieved after administration of succinylcholine from the peak bronchoconstriction seen after challenge with PAF. The mean change in tracheal pressure is calculated for each test compound and compared to the mean change in tracheal pressure for the control animals to give the percent inhibition of bronchoconstriction. The standard error is calculated as the standard error of the mean.

In assay [2] the target is T1, PAF binding, dog platelets (Canis lupus familiaris, UniProt A0A8I3NSH0).
T1 sequence (A0A8I3NSH0 1-343): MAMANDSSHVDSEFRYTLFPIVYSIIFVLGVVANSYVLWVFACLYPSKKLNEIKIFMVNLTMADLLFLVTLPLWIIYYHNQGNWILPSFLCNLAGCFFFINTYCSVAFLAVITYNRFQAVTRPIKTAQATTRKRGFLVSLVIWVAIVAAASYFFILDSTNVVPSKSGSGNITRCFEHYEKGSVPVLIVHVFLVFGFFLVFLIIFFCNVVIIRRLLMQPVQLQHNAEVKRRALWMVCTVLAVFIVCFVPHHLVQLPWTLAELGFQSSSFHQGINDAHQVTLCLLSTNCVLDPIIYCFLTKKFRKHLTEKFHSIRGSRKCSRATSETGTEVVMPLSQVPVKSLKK
Kind of assay: PAF Binding Assay (3H-PAF binding to washed dog platelets). Particulars: 10 minutes at room temperature.
Protocol: The binding assay was performed in 400 μl polyethylene microcentrifuge tubes (Beckman) containing 50 μl of an oil mixture of 2 parts Siliconol AR200 (Serva): 1 part Silicone Fluid (Arthur H. Thomas). Buffer, standards, or analogs 150 μl total volume) were added to the tubes. Radiolabelled ^3 H-PAF (50 μl) was then added to the tubes. The reaction was started by the addition of 50 μl of dog platelets (2×10^7 platelets). The tubes were capped, inverted several times to mix, and incubated for 10 minutes at room temperature. The platelets were separated from the incubation mixture by centrifuging 1 minute in a Beckman Microfuge B centrifuge. The tip of the microfuge tube was cut off, and the platelets were washed out of the tip with 200 μl of 50% methanol (Burdick and Jackson). Aquasol (NEN, 10 ml) was added and the radioactivity in the samples was determined using an LS 8100 Beckman liquid scintillation counter linked to a Techtran tape recorder. Data was processed through an in-house computer system. Alternatively, radioactivity was determined using a Searle Mark III liquid scintillation counter linked to a Iso-Data microprocessor.
Blood was collected from anesthesized or unanesthesized dogs into 5ml plastic centrifuge tubes containing 3.8% sodium citrate as the anticoagulant (1 volume of citrate/9 volumes of blood). The red cells were removed by centrifugation for 15 minutes at 600 rpm (100-125 g) at room temperature. An aliquot of the supernatant platelet rich Plasma (PRP) was saved for cell counting and the remainder was acidified to pH 6.5 with 0.15M citric acid. The platelet pellet was obtained after a 10 minute centrifugation at 2000 rpm (1000 g) at room temperature. Washed platelets were prepared by resuspending the platelet pellet once with PBS containing 1 mM EDTA, centrifuging as noted, and then resuspending the platelets in 0.1% BSA-PBS. An aliquot of the washed platelets was counted, platelets used for binding assays were diluted to 2×10^7 platelets/assay tube (4×10^8 platelets/ml).

[3] abbreviates: 1 mg/kg iv, 1 minute pretreatment.

Regarding `C[C@H](CCCc1cccnc1)NC(=O)c1ccc(-c2ccccc2)c(-c2ccccc2)c1` [(R)-3,4-diphenyl-N-[1-methyl-4-(3-pyridinyl)-butyl]benzamide], the inhibition in vivo at 1 mg/kg in assay [1] (setting [3]) was 31 ± 4%. This compound also gave an IC50 in assay [2] of 250 nM.
For `CCCc1cc(C(=O)N[C@H](C)CCCc2cccnc2)ccc1-c1ccccc1` [(R)-2-Propyl-N-[1-methyl-4-(3-pyridinyl)-butyl]-[1,1'-biphenyl]-4-carboxamide] the same measures were 12 ± 6% and 50 nM.
Regarding `COc1ccc(-c2ccc(C(=O)N[C@H](C)CCCc3cccnc3)cc2)cc1OC` [(R)-3',4'-Dimethoxy-N-[1-methyl-4-(3-pyridinyl)butyl][1,1'-biphenyl]-4-carboxamide], in assay [1] (setting [3]), the inhibition in vivo at 1 mg/kg is 65 ± 11%. Besides, the inhibition in vivo at 50 mg/kg in assay [1] was found to be 88 ± 3%.
On to `C=CCc1cc(C(=O)N[C@H](C)CCCc2cccnc2)ccc1-c1ccc(OC)c(OC)c1` [(R)-3',4'-Dimethoxy-N-[1-methyl-4-(3-pyridinyl)butyl]-2-(2-propenyl)-[1,1'-biphenyl]-4-carboxamide], for which the inhibition in vivo at 1 mg/kg in assay [1] (setting [3]) is 80 ± 11%. In addition, the inhibition in vivo at 50 mg/kg in assay [1] amounted to 93 ± 3%. Moreover, in assay [2], the IC50 came out at 80 nM.
For the compound `O=C(NCCCCc1cccnc1)c1ccc(C2CCCCC2)cc1` [4-Cyclohexyl-N-[4-(3-pyridinyl)butyl]-benzamide], the inhibition in vivo at 1 mg/kg in assay [1] (setting [3]) was 17 ± 7%. This compound also gave an IC50 in assay [2] of 250 nM.
For `O=C(NCCCCc1cccnc1)c1ccc(-c2cccc(F)c2)c(-c2cccc(F)c2)c1` [3,4-bis-(3-Fluorophenyl)-N-[4-(3-pyridinyl)butyl]-benzamide] the same measures were 12 ± 2% and 400 nM.
Regarding `CCCCc1cc(C(=O)NCCCCc2cccnc2)ccc1-c1ccc(OC)c(OC)c1` [2-Butyl-3',4'-dimethoxy-N-[4-(3-pyridinyl)butyl][1,1'-biphenyl)-4-carboxamide], the inhibition in vivo at 1 mg/kg in assay [1] (setting [3]) is 6 ± 4%.
As for `CCc1cc(C(=O)N[C@H](C)CCCc2cccnc2)ccc1-c1ccc(OC)c(OC)c1` [(R)-2-Ethyl-3',4'-dimethoxy-N-[1-methyl-4-(3-pyridinyl)butyl][1,1'-biphenyl]-4-carboxamide], the inhibition in vivo at 1 mg/kg in assay [1] (setting [3]) came to 93 ± 1%. For the same compound, in assay [1], the inhibition in vivo at 50 mg/kg amounted to 89 ± 5%. In assay [2], this compound displayed an IC50 of 4 nM.
For `COc1ccc(-c2ccc(C(=O)NCCCCc3cccnc3)cc2[N+](=O)[O-])cc1OC` [2-Nitro-3',4'-dimethoxy-N-[4-(3-pyridinyl)-butyl][1,1'-biphenyl]-4-carboxamide] the same measures were 81 ± 15%, 62 ± 15% and 200 nM.
As for `O=C(NCCCCc1cccnc1)c1cccc(-c2ccccc2)c1` [N-[4-(3-pyridinyl)butyl][1,1'-biphenyl]-3-carboxamide], in assay [1] (setting [3]), the inhibition in vivo at 1 mg/kg is 14 ± 10%. The same compound showed an IC50 in assay [2] of 620 nM.
On to `COc1ccc(-c2ccc(C(=O)N[C@H](C)CCCc3cccnc3)cc2[N+](=O)[O-])cc1OC` [(R)-2-Nitro-3',4'-dimethoxy-N-[1-methyl-4-(3-pyridinyl)-butyl][1,1'-biphenyl]-4-carboxamide], for which, in assay [1] (setting [3]), the inhibition in vivo at 1 mg/kg stood at 97 ± 4%. Besides, in assay [1], the inhibition in vivo at 50 mg/kg was determined as 89 ± 8%. The IC50 in assay [2] is 200 nM.
Turning to `COc1ccc(-c2ccc(C(=O)NCCCCc3cccnc3)cc2Br)cc1OC` [2-Bromo-3',4'-dimethoxy-N-[4-(3-pyridinyl)butyl]-[1,1'biphenyl]-4-carboxamide], the inhibition in vivo at 1 mg/kg in assay [1] (setting [3]) worked out at 81 ± 10%. For the same compound, the inhibition in vivo at 50 mg/kg in assay [1] is 74 ± 12%. In assay [2], this compound showed an IC50 of 200 nM.
Turning to `Cc1ccc(-c2ccc(-c3nnn(CCCCc4cccnc4)n3)cc2)cc1C` [3-[4-[5-(3',4'-Dimethyl-[1,1'-biphenyl]-4-yl)-2H-tetrazol-2-yl]butyl]pyridine], in assay [1] (setting [3]), the inhibition in vivo at 1 mg/kg was determined as 17 ± 15%. The compound further registered an IC50 in assay [2] above 1000 nM.
`COc1ccc(-c2ccc(C(=O)NCCCCc3cccnc3)cc2OC)cc1OC` [2,3',4'-trimethoxy-N-[4-(3-pyridinyl)butyl]-[1,1'-biphenyl]-4-carboxamide]: in assay [1] (setting [3]), the inhibition in vivo at 1 mg/kg came to 58 ± 10%. Moreover, the IC50 in assay [2] came out at 300 nM.
As for `COc1ccc(-c2ccc(C(=O)NCCCCc3cccnc3)cc2-c2ccc(OC)cc2)cc1` [3,4-bis-(4,Methoxyphenyl)-N-[4-(3-pyridinyl)butyl]-benzamide], in assay [1] (setting [3]), the inhibition in vivo at 1 mg/kg was 26 ± 6%. The IC50 in assay [2] amounted to 125 nM.
For the compound `Cc1ccc(-c2ccc(C(=S)NCCCCc3cccnc3)cc2)cc1C` [3',4'-Dimethyl-N-[4-(3-pyridinyl)butyl][1,1-biphenyl]-4-carbothioamide], the “PAF-Induced Bronchoconstriction % Inhibition, 1 mg/kg iv” value in assay [1] (setting [3]) is reported as “potentiation”. The same compound returned an IC50 in assay [2] of 600 nM.
For the compound `Cc1ccc(-c2ccc(-c3nnn(CCCCCCc4cccnc4)n3)cc2)cc1C` [3-[6-[5-(3',4'-Dimethyl-[1,1'-biphenyl]-4-yl)-2H-tetrazol-2-yl]hexyl]pyridine], the inhibition in vivo at 1 mg/kg in assay [1] (setting [3]) was found to be 40 ± 4%. Further, the IC50 in assay [2] is above 1000 nM.
Regarding `COc1ccc(-c2ccc(C(=O)N[C@H](C)CCCc3cccnc3)cc2Br)cc1OC` [(R)-2-Bromo-3',4'-dimethoxy-N-[1-methyl-4-(3-pyridinyl)-butyl][1,1'-biphenyl]-4-carboxamide], in assay [1] (setting [3]), the inhibition in vivo at 1 mg/kg amounted to 98 ± 0.7%. For the same compound, in assay [1], the inhibition in vivo at 50 mg/kg stood at 97 ± 1%. Moreover, the concentration for half-maximal inhibition (IC50) in assay [2] turned out to be 180 nM.
Turning to `CCCc1cc(C(=O)N[C@H](C)CCCc2cccnc2)ccc1-c1ccc(OC)c(OC)c1` [(R)-3',4'-Dimethoxy-N-[1-methyl-4-(3-pyridinyl)butyl]-2-propyl-[1,1'-biphenyl]-4-carboxamide], in assay [1] (setting [3]), the inhibition in vivo at 1 mg/kg is 28 ± 12%. The compound further returned an IC50 in assay [2] of 50 nM.
For `CCCc1cc(C(=O)NCCCCc2cccnc2)ccc1-c1ccccc1` [2-Propyl-N-[4-(3-pyridinyl)butyl][1,1'-biphenyl]-4-carboxamide], in that order: 38 ± 8% and 60 nM.
As to `CCCCc1cc(C(=O)N[C@H](C)CCCc2cccnc2)ccc1-c1ccc(OC)c(OC)c1` [(R)-2-Butyl-3',4'-dimethoxy-N-[1-Methyl-4-(3-pyridinyl)butyl][1,1'-biphenyl]-4-carboxamide], in assay [1] (setting [3]), the inhibition in vivo at 1 mg/kg turned out to be 55 ± 12%.
Regarding `CCCCc1ccc(C(=O)NCCCCc2cccnc2)cc1CCCC` [3,4-Dibutyl-N-[4-(3-pyridinyl)butyl]benzamide], the IC50 in assay [2] is above 1000 nM.
Consider `CCCCc1cc(C(=O)NCCCCc2cccnc2)ccc1-c1ccccc1` [2-Butyl-N-[4-(3-pyridinyl)butyl][1,1'-biphenyl]-4-carboxamide], for which the inhibition in vivo at 1 mg/kg in assay [1] (setting [3]) worked out at 27 ± 10%. This compound also had a half-inhibitory concentration (IC50) in assay [2] of 500 nM.
For `Cc1ccc(-c2ccc(-c3nnn(CCCc4cccnc4)n3)cc2)cc1C` [3-[3-[5-(3',4'-Dimethyl-[1,1'-biphenyl]-4-yl)-2H-tetrazol-2-yl]propyl]pyridine], in that order: 11 ± 3% and above 1000 nM.
